Data from patent US4841067A, “Novel amino acid derivatives” (Kissei Pharmaceutical Co., Ltd., priority 1985, dated 1989).

Assays:
human renin = molecular target: T1, human renin (Homo sapiens, UniProt P00797); assay: Human renin-sheep renin substrate reaction system in vitro (angiotensin I by radioimmunoassay); format: biochemical; conditions: pH 7.4, 37° C., 15 minutes, read-out: IC50 (molar concentration which produced 50% inhibition)
T1 sequence (P00797 67-406): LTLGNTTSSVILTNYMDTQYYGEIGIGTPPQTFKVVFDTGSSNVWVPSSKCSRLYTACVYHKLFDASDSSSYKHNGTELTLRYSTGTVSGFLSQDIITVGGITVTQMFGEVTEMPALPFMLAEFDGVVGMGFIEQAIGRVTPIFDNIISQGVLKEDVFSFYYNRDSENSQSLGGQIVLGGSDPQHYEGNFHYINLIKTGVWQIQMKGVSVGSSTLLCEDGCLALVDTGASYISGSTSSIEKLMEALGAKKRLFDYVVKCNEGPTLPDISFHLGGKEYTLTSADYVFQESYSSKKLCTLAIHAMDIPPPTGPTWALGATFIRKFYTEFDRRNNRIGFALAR
Protocol: Human renin-sheep renin substrate reaction system in vitro To a mixture containing 200 μl of a 125 mM pyrophosphate buffer (ph 7.4), 25 μl of a 20 mM aqueous solution of […] as an angiotensin converting enzyme inhibitor, 50 μl of semipurified sheep renin substrate (4400 ng angiotensin I/ml) 50 μl of dimethyl sulfoxide solution of a dipeptide of the present invention and 150 μl of deionized water was added 25 μl of purified human renin (20-30 ng angiotensin I/hr). The mixture was incubated for 15 minutes on a water bath at 37° C., and the reaction mixture was allowed to stand for 5 minutes on a water bath at 100° C. to stop the reaction. After cooling, 200 μl of the solution were taken up and the amount of angiotensin I produced by the addition of renin was determined by radioimmunoassay. The inhibitory effect was calculated by the following equation. [formula] As a control, the same procedure as above was carried out by using 50 μl of dimethyl sulfoxide alone in place of the 50 μl of dimethyl sulfoxide solution containing an amino acid derivative of the present invention. The molar concentration which produced 50% inhibition (IC50) was calculated from the inhibition value obtained, and the results are shown below.

marmoset = assay: Hypotensive effect in marmoset (furosemide-induced high renin state, i.v. injection); format: in vivo, common marmoset; conditions: 2.5 mg/kg i.v., conscious male marmoset, furosemide pretreated
Protocol: Hypotensive effect in marmoset
The experiment was carried out by using common marmoset as described in K. G. Hofbauer et al., Clinical and Experimental Hypertension-Theory and Practice, Vol. A5, No. 7 & 8 (1983), pages 1237-1247.
Furosemide was orally administered three times to common marmoset at 15 mg per kilogram per day every other day to create a high renin state. Blood pressure of consious marmoset was measured 2 days after the last administration of furosemide.
Measurement of blood pressure
Male common marmoset weighing 325 g was lightly anesthetized by ketamine hydrochloride (Ketalar, produced by Parke Davis, 20 mg/kg i.m.), and their carotid artery and vein exposed.. Catheters being filled with a heparin solution was subcutaneously inserted into the carotid artery and vein from the dorsum. After suturing of the opened part, the marmosets were placed on a heated mat. After complete recovery from the anesthesia, an amino acid derivative of the present invention (2.5 mg/kg) was intravenously injected through the venous catheter.
The arterial catheter was connected to a pressure transducer and blood pressure was recorded on the polygraph.

Structure (SMILES) | IC50 (human renin) [nM] | other results
CC(C)C[C@H](NC(=O)[C@H](Cc1c[nH]cn1)NC(=O)C(CC(=O)NCCc1ccccc1)Cc1cccc2ccccc12)C(O)C(=O)OCc1ccccc1 (single isomer, unassigned) | 42 | –
CC(C)CCOC(=O)C(O)[C@H](CC(C)C)NC(=O)[C@H](Cc1c[nH]cn1)NC(=O)C(CC(=O)NCCc1ccccc1)Cc1cccc2ccccc12 (single isomer, unassigned) | 61 | –
COC(=O)[C@H](O)[C@H](CC(C)C)NC(=O)[C@H](Cc1cnc[nH]1)NC(=O)C(CC(=O)NCCc1ccccc1)Cc1cccc2ccccc12 (single isomer, unassigned) | 31 | –
COC(=O)[C@@H](O)[C@H](CC(C)C)NC(=O)[C@H](Cc1cnc[nH]1)NC(=O)C(CC(=O)NCCc1ccccc1)Cc1cccc2ccccc12 (single isomer, unassigned) | 1300 | –
CC(C)C[C@H](NC(=O)[C@H](Cc1cnc[nH]1)NC(=O)C(CC(=O)NCCc1ccccc1)Cc1cccc2ccccc12)C(O)C(=O)NCc1ccccc1 (single isomer, unassigned) | 100 | –
CC(C)CCNC(=O)C(O)[C@H](CC(C)C)NC(=O)[C@H](Cc1cnc[nH]1)NC(=O)C(CC(=O)NCCc1ccccc1)Cc1cccc2ccccc12 (single isomer, unassigned) | 250 | –
CC(C)C[C@H](NC(=O)[C@H](Cc1cnc[nH]1)NC(=O)C(CC(=O)NCCc1ccccc1)Cc1cccc2ccccc12)C(O)C(=O)N(C)C (single isomer, unassigned) | 2800 | –
CNC(=O)C(O)[C@H](CC(C)C)NC(=O)[C@H](Cc1cnc[nH]1)NC(=O)C(CC(=O)NCCc1ccccc1)Cc1cccc2ccccc12 (single isomer, unassigned) [listing 1 of 2 here] | 4500 | –
CNC(=O)C(O)[C@H](CC(C)C)NC(=O)[C@H](Cc1cnc[nH]1)NC(=O)C(CC(=O)NCCc1ccccc1)Cc1cccc2ccccc12 (single isomer, unassigned) [listing 2 of 2 here] | 390 | –

The next lines start with results.

IC50 (human renin) [nM] | Structure (SMILES) | other results
700 | CNC(=O)C(O)[C@H](CC(C)C)NC(=O)[C@H](Cc1cnc[nH]1)NC(=O)C(CC(=O)NCCc1ccccc1)Cc1cccc2ccccc12 (mixture of isomers) [(2RS,3S)-3-{N-[(+)-2-(1-naphthylmethyl)-3-(phenethylcarbamoyl)propionyl]-L-histidyl}-amino-2-hydroxy-5-methylhexanoylmethylamide] | –
49 | COC(=O)C(O)[C@H](CC(C)C)NC(=O)[C@H](Cc1c[nH]cn1)NC(=O)C(CC(=O)NCCc1ccccc1)Cc1cccc2ccccc12 (mixture of isomers) [methyl (2RS, 3S)-3-{N-[(+)-2-(1-naphthylmethyl)-3-(phenethylcarbamoyl)propionyl]-L-histidyl}amino-2-hydroxy-5-methylhexanoate] | Diastolic blood pressure (marmoset; 1 min after injection (control 72)): 56 mm Hg; Systolic blood pressure (marmoset; 1 min after injection (control 103)): 85 mm Hg; Diastolic blood pressure (marmoset; 3 min after injection (control 72)): 61 mm Hg; Systolic blood pressure (marmoset; 3 min after injection (control 103)): 91 mm Hg; Diastolic blood pressure (marmoset; 5 min after injection (control 72)): 62 mm Hg; Systolic blood pressure (marmoset; 5 min after injection (control 103)): 92 mm Hg; Diastolic blood pressure (marmoset; 10 min after injection (control 72)): 70 mm Hg; Systolic blood pressure (marmoset; 10 min after injection (control 103)): 102 mm Hg; Diastolic blood pressure (marmoset; 15 min after injection (control 72)): 72 mm Hg; Systolic blood pressure (marmoset; 15 min after injection (control 103)): 103 mm Hg
5900 | CC(C)C[C@H](NC(=O)[C@H](Cc1c[nH]cn1)NC(=O)C(CC(=O)NCCc1ccccc1)Cc1cccc2ccccc12)[C@@H](O)CCO (single isomer, unassigned) | –
790 | COCC(O)[C@H](CC(C)C)NC(=O)[C@H](Cc1cnc[nH]1)NC(=O)C(CC(=O)NCCc1ccccc1)Cc1cccc2ccccc12 (single isomer, unassigned) [(2RS, 3S)-3-{N-(+)-2-(1-Naphthylmethyl)-3-(phenethylcarbamoyl)propionyl]-L-histidyl}amino-2-hydroxy-5-methylhexyl methyl ether] | –
280 | CC(C)CCOCC(O)[C@H](CC(C)C)NC(=O)[C@H](Cc1c[nH]cn1)NC(=O)C(CC(=O)NCCc1ccccc1)Cc1cccc2ccccc12 (single isomer, unassigned) [(2RS, 3S)-3-{N-[(+)-2-(1-Naphthylmethyl)-3-(phenethylcarbamoyl)propionyl]-L-histidyl}amino-2-hydroxy-5-methylhexyl isoamyl ether] | –
590 | CC(C)C[C@H](NC(=O)[C@H](Cc1c[nH]cn1)NC(=O)C(CC(=O)NCCc1ccccc1)Cc1cccc2ccccc12)C(O)CO (single isomer, unassigned) [(2RS, 3S)-3-{N-[(+)-2-(1-naphthylmethyl)-3-(phenethylcarbamoyl)propionyl]-L-histidyl}amino-2-hydroxy-5-methylhexanol] | –
470 | CC(C)C[C@H](NC(=O)[C@H](Cc1cnc[nH]1)NC(=O)C(CC(=O)NCCc1ccccc1)Cc1cccc2ccccc12)C(O)COCc1ccccc1 (single isomer, unassigned) [(2RS, 3S)-3-{N-[(+)-2-(1-naphthylmethyl)-3-phenethylcarbamoyl)propionyl]-L-histidyl}amino-2-hydroxy-5-methylhexyl benzyl ether] | –
150 | CC(C)C[C@H](NC(=O)[C@H](Cc1cnc[nH]1)NC(=O)C(CC(=O)NCCc1ccccc1)Cc1cccc2ccccc12)C(O)CNCc1ccccc1 (single isomer, unassigned) [(2RS, 3S)-N-Benzyl-3-{N-[(+)-2-(1-naphthylmethyl)-3-(phenethylcarbamoyl)propiobnyl]-L-histidyl}amino-2-hydroxyl-5-methylhexylamine] | –
350 | CC(C)CCNCC(O)[C@H](CC(C)C)NC(=O)[C@H](Cc1cnc[nH]1)NC(=O)C(CC(=O)NCCc1ccccc1)Cc1cccc2ccccc12 (single isomer, unassigned) [(2RS, 3S)-N-Isoamyl-3-{N-[(+)-2-(1-naphthylmethyl)-3-(phenethylcarbamoyl)propionyl]-L-histidyl}-amino-2-hydroxy-5-methylhexylamine] | –
310 | COC(=O)C[C@H](O)[C@H](CC(C)C)NC(=O)[C@H](Cc1cnc[nH]1)NC(=O)C(CC(=O)NCCc1ccccc1)Cc1cccc2ccccc12 (single isomer, unassigned) [Methyl N-[(+)-2-(1-naphthylmethyl)-3-(phenethylcarbamoyl)propionyl]-L-histidylstatinate] | –
72 | CC(C)CCNC(=O)C[C@H](O)[C@H](CC(C)C)NC(=O)[C@H](Cc1cnc[nH]1)NC(=O)C(CC(=O)NCCc1ccccc1)Cc1cccc2ccccc12 (single isomer, unassigned) [N-[(+)-2-(1-Naphthylmethyl)-3-(phenethylcarbamoyl)propionyl]-L-histidylstatylisoamylamide] | –
740 | CNC(=O)C[C@H](O)[C@H](CC(C)C)NC(=O)[C@H](Cc1cnc[nH]1)NC(=O)C(CC(=O)NCCc1ccccc1)Cc1cccc2ccccc12 (single isomer, unassigned) [N-[(+)-2-(1-Naphthylmethyl)-3-(phenethylcarbamoyl)propionyl]-L-histidylstatylmethylamide] | –
